In US20110111986A1, “NOVEL SACCHARIDE PRIMER AND USE THEREOF” (KEIO UNIVERSITY, priority 2007, published 2011):

Tested on: B16 cells
Experiment: Sugar chain extension reaction in B16 cells with saccharide primer (HPTLC, densitometer)
Format: cell-based, mouse
Conditions: for extended sugar chain product detected by HPTLC: B16 cells 2.0×10^6 cells/plate, 48 hours, medium fraction and cell fraction, resorcinol staining
Experimental: When a saccharide primer is administered to the sugar chain-synthesizing cell described above, this cell reacts with the saccharide primer, and as a result, a desired sugar chain can be obtained. Specifically, a saccharide primer is administered at a concentration of 50 μM to a medium in which sugar chain-synthesizing cells (for example, B16 cells) are cultured, and the mixture is incubated at 37° C. for about 2 days. During that period, the saccharide primer is introduced into the cells, a sugar is added to the saccharide primer, and various types of sugar chains are produced in the culture liquid. The sugar chains are recovered from the culture liquid by a method known to a person skilled in the art, for example, a lectin column or a commercially available sugar chain purification kit.
First, the saccharide primer Lac-C12 and the saccharide primer Lac-C13:1(2) were added to each medium in which B16 cells (mouse melanoma cells strongly expressing GM3) (Japan Health Science Foundation, Health Science Research Resources Bank) were plated at a concentration of 2.0×10^6 cells/plate, and then incubated for 48 hours. Then, the medium and the cells were separated by centrifugation, and each of collected substances was analyzed with HPTLC.
With regard to the saccharide primer Lac-C12 and the saccharide primer Lac-C13:1(2), their sugar chain extension efficiencies in B16 cells and amounts of the saccharide primers taken into the cells were compared by a quantitative analysis with a densitometer.

| SMILES | extended sugar chain product detected by HPTLC | sugar chain extension efficiency (amounts of extended sugar chain products) (B16 cells, medium fraction, 48 hours incubation, densitometer quantitation, compared with Lac-C12, listed as Lac-O-C13:1(2)) |
| --- | --- | --- |
| CCCCCCCCCCCCO[C@@H]1OC(CO)[C@@H](O[C@@H]2OC(CO)[C@H](O)[C@H](O)C2O)[C@H](O)C1O (stereo partly drawn) [Lac-C12, reference compound] | a product X′ was confirmed in both the medium fraction and the cell fraction | – |
| CCCCCCCCCC/C=C/CO[C@@H]1OC(CO)[C@@H](O[C@@H]2OC(CO)[C@H](O)C(O)C2O)C(O)C1O (stereo partly drawn) [Lac-C13:1(2), 1-O-(trans-2-tridecenyl)-4-O-(β-D-galactopyranosyl)-β-D-glucopyranoside] | a product X was confirmed in both the medium fraction and the cell fraction | equal to or greater than those obtained by using a conventional primer |
